{"source": "patent US20130237550A1", "about": "“ARYLVINYLAZACYCLOALKANE COMPOUNDS FOR CONSTIPATION” (TARGACEPT, INC., priority 2010, published 2013)", "key": {"[1]": {"molecular_target": "α4β2 nueronal nicotinic receptors (Homo sapiens, UniProt P17787+P43681)", "sequence (P43681 29-627 limits assumed)": "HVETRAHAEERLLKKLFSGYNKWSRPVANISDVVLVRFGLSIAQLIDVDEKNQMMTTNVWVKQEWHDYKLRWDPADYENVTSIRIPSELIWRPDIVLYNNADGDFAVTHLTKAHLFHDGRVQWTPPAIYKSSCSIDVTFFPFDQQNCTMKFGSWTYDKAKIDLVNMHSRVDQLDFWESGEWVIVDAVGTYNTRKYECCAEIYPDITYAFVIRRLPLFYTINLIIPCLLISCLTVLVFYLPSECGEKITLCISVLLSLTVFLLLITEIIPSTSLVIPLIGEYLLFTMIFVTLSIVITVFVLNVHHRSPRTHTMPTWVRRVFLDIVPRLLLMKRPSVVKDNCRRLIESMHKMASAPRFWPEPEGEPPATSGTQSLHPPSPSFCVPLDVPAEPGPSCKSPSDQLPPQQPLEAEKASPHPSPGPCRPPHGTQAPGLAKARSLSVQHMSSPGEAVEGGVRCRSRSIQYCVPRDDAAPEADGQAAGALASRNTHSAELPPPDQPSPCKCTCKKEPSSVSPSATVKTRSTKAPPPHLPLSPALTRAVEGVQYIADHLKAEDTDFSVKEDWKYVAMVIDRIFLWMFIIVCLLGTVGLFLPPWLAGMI", "sequence (P17787 26-502)": "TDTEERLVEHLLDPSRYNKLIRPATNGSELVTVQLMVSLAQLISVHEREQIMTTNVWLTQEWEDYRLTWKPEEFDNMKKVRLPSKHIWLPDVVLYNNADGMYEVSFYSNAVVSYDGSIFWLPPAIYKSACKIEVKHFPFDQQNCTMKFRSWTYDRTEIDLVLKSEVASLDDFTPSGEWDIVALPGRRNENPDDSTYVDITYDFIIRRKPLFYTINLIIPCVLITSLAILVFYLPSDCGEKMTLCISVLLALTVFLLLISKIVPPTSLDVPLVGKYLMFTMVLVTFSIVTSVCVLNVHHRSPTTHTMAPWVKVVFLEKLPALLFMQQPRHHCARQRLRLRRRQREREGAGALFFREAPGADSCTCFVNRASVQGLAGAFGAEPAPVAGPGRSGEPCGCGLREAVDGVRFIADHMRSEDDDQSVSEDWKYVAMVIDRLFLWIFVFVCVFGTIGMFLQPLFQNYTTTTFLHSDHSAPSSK", "assay": "Agonism at α4β2 neuronal nicotinic receptors (statement)"}, "[2]": {"molecular_target": "α3β4 nueronal nicotinic receptors (Homo sapiens, UniProt P30926+P32297)", "sequence (P32297 32-505)": "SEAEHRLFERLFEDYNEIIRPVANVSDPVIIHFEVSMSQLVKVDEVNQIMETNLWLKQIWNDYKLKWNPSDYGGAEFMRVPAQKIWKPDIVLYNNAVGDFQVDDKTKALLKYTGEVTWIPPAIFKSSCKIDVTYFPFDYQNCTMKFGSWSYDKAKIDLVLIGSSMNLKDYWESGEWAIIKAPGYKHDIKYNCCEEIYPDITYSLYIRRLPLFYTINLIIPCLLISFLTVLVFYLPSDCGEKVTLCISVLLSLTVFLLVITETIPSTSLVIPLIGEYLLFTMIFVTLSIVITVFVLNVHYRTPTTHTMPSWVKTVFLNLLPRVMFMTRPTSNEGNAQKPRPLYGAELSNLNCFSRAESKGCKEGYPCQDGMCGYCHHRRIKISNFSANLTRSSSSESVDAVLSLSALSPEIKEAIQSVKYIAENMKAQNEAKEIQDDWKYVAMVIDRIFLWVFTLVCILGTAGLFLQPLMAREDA", "sequence (P30926 22-498)": "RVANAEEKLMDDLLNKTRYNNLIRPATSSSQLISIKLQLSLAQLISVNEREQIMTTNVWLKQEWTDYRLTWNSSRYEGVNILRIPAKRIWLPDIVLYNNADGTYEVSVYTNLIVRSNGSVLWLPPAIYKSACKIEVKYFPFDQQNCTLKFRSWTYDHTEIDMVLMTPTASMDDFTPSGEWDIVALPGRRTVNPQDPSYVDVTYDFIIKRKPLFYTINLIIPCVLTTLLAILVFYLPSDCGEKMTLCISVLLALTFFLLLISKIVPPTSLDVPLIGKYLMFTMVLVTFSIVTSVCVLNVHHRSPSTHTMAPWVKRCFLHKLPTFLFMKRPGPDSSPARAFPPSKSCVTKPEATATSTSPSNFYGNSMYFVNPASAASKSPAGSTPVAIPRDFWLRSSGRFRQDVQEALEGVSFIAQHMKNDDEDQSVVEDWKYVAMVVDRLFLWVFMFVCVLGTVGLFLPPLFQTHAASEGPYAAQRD", "assay": "Agonism at α3β4 neuronal nicotinic receptors (statement)"}, "[3]": {"system": "rat Streptozotocin-induced diabetic neuropathy model", "assay": "Streptozotocin-induced diabetic neuropathy (allodynia) model", "assay_type": "in vivo", "details": "STZ rat; for pain sensitivity (allodynia testing of the hindpaw): Week 6, versus vehicle-treated animals", "excerpt": "Preclinically, in two animal models of neuropathic pain, repeat administration of Compound A produced significant analgesia. […] With reference to WO 08/157,365, the rat Streptozotocin-induced diabetic neuropathy model is a clinically relevant model of diabetic neuropathy, which replicates elements of the human situation diabetic condition such as high glucose levels, neuropathic pain in the extremities, and generally poor health."}, "[4]": {"system": "Taxol®-induced neuropathy", "assay": "Taxol-induced (chemotherapy induced) neuropathy model", "assay_type": "in vivo"}, "[5]": {"assay": "Single (SRD) and multiple rising dose (MRD) studies in normal healthy subjects", "assay_type": "in vivo, human", "details": "oral; human plasma; read-out: systemic (plasma) half-life", "protocol": "(§1) In the MRD study, following doses 10 mg administered 4 times daily, nausea and vomiting typically occurred within 30 min of dosing—prior to significant systemic absorption. Diarrhea was typically observed more than 5 hours following dosing, when systemic concentrations were approximately 20% of Cmax values. […] Such pharmacodynamic GI motility responses appear to correlate primarily with local effects (possibly agonism of α3β4 receptors located on enterochromaffin cells) rather than systemic plasma concentrations."}, "normal healthy subjects": {"system": "normal healthy subjects", "assay": "Single (SRD) and multiple rising dose (MRD) studies in normal healthy subjects", "assay_type": "in vivo, human", "protocol": "as §1"}, "subjects with IBS-C": {"system": "subjects with IBS-C", "assay": "Randomized, double-blind, placebo controlled proof of principle study in IBS-C", "assay_type": "in vivo, human", "protocol": "A randomized, double-blind, placebo controlled, parallel group, proof of principle study to evaluate the safety, tolerability, and efficacy of Compound A in the treatment of Constipation-Predominant Irritable Bowel Syndrome was conducted.\nThe objectives of the study include the following: to assess the efficacy of Compound A in the treatment of Constipation Predominant Irritable Bowel Syndrome (IBS-C); and to assess the safety, tolerability and pharmacokinetic profile of Compound A in subjects with IBS-C when administered as a enteric coated capsule for a period of 28 days.\nSubjects with constipation predominant irritable bowel syndrome (IBS-C) defined by: the ROME III criteria as: recurrent abdominal pain or discomfort at least 3 days per month, during the previous 3 months that is associated with 2 or more of the following: (1) relieved by defecation; (2) onset associated with a change in stool frequency; and/or (3) onset associated with a change in stool appearance.\nTreatment included 5 mg daily (as Enteric Coated capsule) for 14 days followed by 5 mg BID for another 14 days. One endpoint includes global IBS symptom relief (7-point scale). Another endpoint includes bowel movement frequency, pain, bloating, straining, stool consistency, and frequency of rescue medication (laxative). Statistically, a was set to 0.1."}}, "data": [{"compound": "C(=C\\[C@H]1CCNC1)/c1cncnc1", "note": "[Compound A, (R)-5-((E)-2-pyrrolidin-3-ylvinyl)pyrimidine]", "values": [{"measurement": "receptor activity type", "setting": "[1]", "value": "agonist"}, {"measurement": "receptor activity type", "setting": "[2]", "value": "agonist"}, {"measurement": "blood glucose levels", "setting": "[3]", "value": "absence of any changes to blood glucose levels"}, {"measurement": "pain sensitivity (allodynia testing of the hindpaw)", "setting": "[3]", "value": "significant reversal of this pain"}, {"measurement": "analgesic effect (allodynia)", "setting": "[4]; chronically administered", "value": "analgesic effect"}, {"measurement": "half-life", "setting": "[5]", "value": "≤ 1", "unit": "h"}, {"measurement": "time of diarrhea after dosing", "setting": "normal healthy subjects; MRD study, 10 mg 4 times daily", "value": "more than 5 hours"}, {"measurement": "time of nausea and vomiting after dosing", "setting": "normal healthy subjects; MRD study, 10 mg 4 times daily", "value": "≤ 30", "unit": "min"}, {"measurement": "systemic concentration when diarrhea observed", "setting": "normal healthy subjects; MRD study, more than 5 hours following dosing", "value": "approximately 20 % of Cmax values"}, {"measurement": "most commonly observed adverse events", "setting": "normal healthy subjects; SRD and MRD studies, healthy subjects", "value": "nausea, vomiting and diarrhea"}, {"measurement": "GI motility", "setting": "normal healthy subjects; healthy human subjects", "value": "increase in GI motility"}, {"measurement": "analgesic properties", "setting": "subjects with IBS-C; IBS-C subjects", "value": "appears to lack analgesic properties"}, {"measurement": "most commonly reported adverse events", "setting": "subjects with IBS-C; IBS-C subjects, 28 days", "value": "headache or gastrointestinal"}, {"measurement": "severity of adverse events", "setting": "subjects with IBS-C; IBS-C subjects, 28 days", "value": "mild to moderate"}, {"measurement": "tolerability", "setting": "subjects with IBS-C; enteric coated capsule, 5 mg daily 14 days then 5 mg BID 14 days", "value": "generally well tolerated"}, {"measurement": "spontaneous bowel movements (SBM)", "setting": "subjects with IBS-C; versus placebo, maintained over at least 1 month", "value": "robust increases"}, {"measurement": "SBM relative to Tegaserod, Lubiprostone and Linaclotide", "setting": "subjects with IBS-C; week 4, FIG. 2, comparator data from literature", "value": "compares favorably"}]}, {"compound": "NCC1(CC(=O)O)CCCCC1", "note": "[Gabapentin, reference compound]", "values": [{"measurement": "analgesic effect (allodynia)", "setting": "[4]; acutely administered", "value": "analgesic effect"}]}, {"compound": "insulin: insulin-treated group in the STZ-rat model of diabetic neuropathy [reference compound]", "values": [{"measurement": "blood glucose levels", "setting": "[3]", "value": "reduced blood glucose levels"}, {"measurement": "pain sensitivity (allodynia testing of the hindpaw)", "setting": "[3]", "value": "did not have significant improvement in pain sensitivity"}]}]}
